Conditions: for vapor or sublimation pressure: Liquid; for mass density: Fluid (supercritical or subcritical phases), Vibrating tube method

C/C=C/C [(E)-2-butene]
Conditions	vapor or sublimation pressure [kPa]
391.25 K	2128.9
396.15 K	2323.1
401.02 K	2529.8
405.96 K	2755.8
411.21 K	3016
416.99 K	3326
423.45 K	3697

Conditions	mass density [kg/m3]
393.24 K, 2756 kPa	454.89
393.24 K, 10003 kPa	497.51
393.24 K, 19992 kPa	528.52
393.24 K, 24995 kPa	539.91
393.24 K, 29988 kPa	549.71
393.24 K, 34990 kPa	558.37
393.24 K, 39993 kPa	566.17
393.25 K, 4997 kPa	472.39
393.25 K, 14998 kPa	514.88
398.24 K, 2959 kPa	443.84
398.24 K, 4981 kPa	462.17
398.24 K, 19993 kPa	522.99
398.24 K, 24990 kPa	534.84
398.24 K, 29994 kPa	545.03
398.24 K, 34989 kPa	553.97
398.24 K, 39985 kPa	561.98
398.25 K, 9988 kPa	490.01
398.25 K, 14985 kPa	508.6
403.24 K, 3180 kPa	432.03
403.24 K, 4993 kPa	451.14
403.24 K, 20001 kPa	517.41
403.24 K, 24988 kPa	529.74
403.24 K, 29983 kPa	540.28
403.24 K, 40005 kPa	557.82
403.25 K, 9990 kPa	482.36
403.25 K, 14985 kPa	502.24
403.25 K, 34985 kPa	549.53
408.25 K, 3414 kPa	419.31
408.25 K, 4983 kPa	439.35
408.25 K, 9983 kPa	474.42
408.25 K, 14983 kPa	495.75
408.25 K, 19999 kPa	511.74
408.25 K, 24993 kPa	524.63
408.25 K, 29986 kPa	535.55
408.25 K, 35006 kPa	545.13
408.25 K, 39984 kPa	553.58
413.25 K, 3663 kPa	405.52
413.25 K, 4996 kPa	426.54
413.25 K, 9995 kPa	466.32
413.25 K, 14985 kPa	489.18
413.25 K, 19983 kPa	505.96
413.25 K, 24984 kPa	519.43
413.25 K, 30003 kPa	530.83
413.25 K, 34985 kPa	540.64
413.25 K, 39999 kPa	549.4
418.25 K, 3926 kPa	390.44
418.25 K, 5005 kPa	412.09
418.25 K, 10002 kPa	457.93
418.25 K, 14984 kPa	482.48
418.25 K, 19988 kPa	500.19
418.25 K, 25008 kPa	514.29
418.25 K, 30007 kPa	526.05
418.25 K, 34987 kPa	536.18
418.25 K, 40000 kPa	545.19
423.25 K, 4203 kPa	373.85
423.25 K, 4985 kPa	394.86
423.25 K, 9986 kPa	449.09
423.25 K, 14991 kPa	475.65
423.25 K, 20002 kPa	494.39
423.25 K, 24993 kPa	509.02
423.25 K, 30004 kPa	521.25
423.25 K, 34988 kPa	531.71
423.25 K, 39993 kPa	540.98
428.25 K, 4495 kPa	355.87
428.25 K, 4987 kPa	374.39
428.25 K, 9990 kPa	440.12
428.25 K, 14983 kPa	468.7
428.25 K, 20010 kPa	488.52
428.25 K, 24997 kPa	503.78
428.25 K, 30004 kPa	516.44
428.25 K, 34994 kPa	527.25
428.25 K, 39986 kPa	536.76
433.25 K, 5019 kPa	349.08
433.25 K, 9991 kPa	430.38
433.25 K, 14995 kPa	461.71
433.25 K, 19998 kPa	482.53
433.25 K, 25004 kPa	498.52
433.25 K, 30001 kPa	511.61
433.25 K, 34993 kPa	522.78
433.25 K, 39997 kPa	532.57
438.25 K, 5017 kPa	309.55
438.25 K, 9985 kPa	420.62
438.25 K, 14989 kPa	454.5
438.25 K, 19998 kPa	476.52
438.25 K, 25008 kPa	493.22
438.25 K, 30004 kPa	506.79
438.25 K, 34989 kPa	518.29
438.25 K, 39985 kPa	528.34
443.25 K, 5019 kPa	241.91
443.25 K, 9986 kPa	410.38
443.25 K, 14991 kPa	447.2
443.25 K, 20002 kPa	470.46
443.25 K, 25001 kPa	487.86
443.25 K, 30002 kPa	501.91
443.25 K, 34997 kPa	513.82
443.25 K, 39989 kPa	524.15
448.25 K, 5019 kPa	186.22
448.25 K, 9990 kPa	399.76
448.25 K, 14990 kPa	439.76
448.25 K, 19992 kPa	464.3
448.25 K, 24997 kPa	482.49
448.25 K, 29990 kPa	497.07
448.25 K, 34988 kPa	509.34
448.25 K, 39987 kPa	519.97
453.25 K, 5019 kPa	159.59
453.25 K, 9992 kPa	388.61
453.25 K, 14987 kPa	432.19
453.25 K, 20001 kPa	458.19
453.25 K, 24998 kPa	477.11
453.25 K, 29995 kPa	492.22
